According to patent publication US9708247B2, “Modulators of the eIF2alpha pathway” (The Regents of the University of California, priority 2013, dated 2017):

Assays:
[1] = system: caspase 3/7; test: Caspase 3/7 activation in Hela cells; type: cell-based, human; conditions: tunicamycin or thapsigargin plus 25 nM ISRIB
Procedure: FIGS. 5A-5D. […]
Hela cells were plated in 96 well Corning plates at 0.4×10^4 cells/well 24 hours prior to imaging. […] In order to quantify the total number of cells, Vybrant DyeCycle Green staining solution (1 μM) was added directly to the well immediately after the final Caspase-3/7 scan and incubated for 1 h prior to acquiring final images. Data was analyzed using IncuCyte analysis software.

[2] = system: mouse embryonic fibroblasts (MEFs); test: Polysome gradient analysis in MEFs; type: cell-based
Procedure: Mouse Embryonic Fibroblasts (MEFs) or TREx-293 cells expressing eIF2α(S51D) were seeded on 150 mm plates and allowed to grow to 80% confluence. Cells were then induced with 25 nM doxycycline for 14 h and subsequently treated with the appropriate compounds for the indicated times. 100 μg/ml of cycloheximide was added to the cells for 1 min before lysis. Cells were washed twice with PBS supplemented with 100 μg/ml cycloheximide and subsequently lysed in 20 mM Tris pH 7.4, 200 mM NaCl, 15 mM MgCl, 1 mM DTT, 8% Glycerol, 100 μg/ml cycloheximide, 1% Triton X-100 and EDTA-free protease inhibitor tablets (Roche). Cells were scraped, collected, triturated with a 25^7/8 gauge needle, and the homogenate was centrifuged for 10 min at 10,000×g. The supernatant was loaded on a 10-50% sucrose gradient and sedimented in a SW40 rotor at 150,000×g for 2.4 h. The gradients were fractionated using a piston gradient fractionator (BioComp) and UV absorbance at 254 nm was monitored using a UV-Monitor (BioRad).

In the case of `O=C(COc1ccc(Cl)cc1)NC1CCC(NC(=O)COc2ccc(Cl)cc2)CC1` (stereo not drawn) [ISRIB], the “activity of caspases 3 and/or 7” value [1] is reported as “significantly induced”, the “translational attenuation by Torin-1 (CAP-dependent initiation)” value ([2]; 750 nM torin-1, 200 nM ISRIB, 2 h) is reported as “did not reverse the effect of Torin-1 on translation” and the “ER stress-induced increase in 80S monosomes at the expense of polyribosomes” value ([2]; 2 μg/ml tunicamycin, 200 nM ISRIB, 1 h) is reported as “reversed (at least partially)”.
